Reference: ChEMBL document CHEMBL1201862, “PubChem BioAssay data set” (2004)
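Interpolation was linear, between the two tested concentrations surrounding the appropriate level; five concentrations were tested over 48 hours in 96-well plates. Here, GI50 denotes the concentration required for 50% inhibition of growth.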 Calls of active or inactive are those of the source. Rule as the data show it: active = GI50 up to about 1.1 µM and inactive = higher.

Experiments:
Assay in all cases: NCI-60 cell line screen, 48 h
[1] = system: MOLT-4
[2] = system: COLO 205
[3] = system: UO-31
[4] = system: SF-268
[5] = system: DMS-273
[6] = system: MDA-MB-231
[7] = system: SR
[8] = system: HOP-92
[9] = system: MDA-N
[10] = system: KM-20L2
[11] = system: NCI/ADR-RES
[12] = system: NCI-H226
[13] = system: IGROV-1
[14] = system: Malme-3M
[15] = system: Hs-578T
[16] = system: M14
[17] = system: RXF 631
[18] = system: SNB-78
[19] = system: TK-10
[20] = system: SW-620
[21] = system: NCI-H460
[22] = system: UACC-257
[23] = system: CCRF-CEM
[24] = system: NCI-H23
[25] = system: OVCAR-8
[26] = system: DMS-114
[27] = system: SK-OV-3
[28] = system: BT-549
[29] = system: 786-0
[30] = system: HL-60
[31] = system: SF-295
[32] = system: DLD-1
[33] = system: A549
[34] = system: SK-MEL-2
[35] = system: MCF7
[36] = system: SNB-19
[37] = system: HT-29
[38] = system: K562
[39] = system: M19-MEL
[40] = system: MDA-MB-435
[41] = system: HCC 2998
[42] = system: SK-MEL-28
[43] = system: PC-3
[44] = system: SNB-75
[45] = system: EKVX
[46] = system: UACC-62
[47] = system: HOP-62
[48] = system: XF498
[49] = system: T47D
[50] = system: SK-MEL-5
[51] = system: OVCAR-3
[52] = system: SF-539
[53] = system: OVCAR-5
[54] = system: A498
[55] = system: HCT-116
[56] = system: DU-145
[57] = system: RPMI-8226
[58] = system: HCT-15
[59] = system: CAKI-1
[60] = system: LOX IMVI
[61] = system: U-251
[62] = system: SN12C
[63] = system: OVCAR-4
[64] = system: KM12
[65] = system: ACHN
[66] = system: RXF 393
[67] = system: NCI-H522

## O=C(NC(=O)c1c(Cl)nc2sccn12)Nc1ccc(Cl)cc1
[1]
  GI50: > 100 µM (inactive)
[2]
  GI50: > 100 µM (inactive)
[3]
  GI50: 67.1 µM (inactive)
[4]
  GI50: 26.2 µM (inactive)
[5]
  GI50: > 46.3 µM (inactive)
[6]
  GI50: 25.5 µM (inactive)
[7]
  GI50: > 100 µM (inactive)
[8]
  GI50: 25.1 µM (inactive)
[9]
  GI50: > 100 µM (inactive)
[10]
  GI50: > 100 µM (inactive)
[11]
  GI50: > 70.3 µM (inactive)
[12]
  GI50: 45.2 µM (inactive)
[13]
  GI50: 49.4 µM (inactive)
[14]
  GI50: 84.3 µM (inactive)
[15]
  GI50: 8.81 µM (inactive)
[16]
  GI50: 78.3 µM (inactive)
[17]
  GI50: > 79.4 µM (inactive)
[18]
  GI50: 43.1 µM (inactive)
[19]
  GI50: 35.6 µM (inactive)
[20]
  GI50: > 100 µM (inactive)
[21]
  GI50: > 85.9 µM (inactive)
[22]
  GI50: > 100 µM (inactive)
[23]
  GI50: > 100 µM (inactive)
[24]
  GI50: 33.5 µM (inactive)
[25]
  GI50: 52.6 µM (inactive)
[26]
  GI50: > 71.3 µM (inactive)
[27]
  GI50: 27.4 µM (inactive)
[28]
  GI50: 28.4 µM (inactive)
[29]
  GI50: 35.4 µM (inactive)
[30]
  GI50: > 100 µM (inactive)
[31]
  GI50: 33.6 µM (inactive)
[32]
  GI50: > 48.3 µM (inactive)
[33]
  GI50: 81.3 µM (inactive)
[34]
  GI50: 59.3 µM (inactive)
[35]
  GI50: 15.5 µM (inactive)
[36]
  GI50: 28.4 µM (inactive)
[37]
  GI50: > 100 µM (inactive)
[38]
  GI50: > 100 µM (inactive)
[39]
  GI50: > 100 µM (inactive)
[40]
  GI50: > 100 µM (inactive)
[41]
  GI50: 54.1 µM (inactive)
[42]
  GI50: > 100 µM (inactive)
[43]
  GI50: 53 µM (inactive)
[44]
  GI50: 19.9 µM (inactive)
[45]
  GI50: > 91.6 µM (inactive)
[46]
  GI50: > 100 µM (inactive)
[47]
  GI50: 19.5 µM (inactive)
[48]
  GI50: 17.9 µM (inactive)
[49]
  GI50: 13.7 µM (inactive)
[50]
  GI50: > 88.3 µM (inactive)
[51]
  GI50: 71.4 µM (inactive)
[52]
  GI50: 30 µM (inactive)
[53]
  GI50: > 100 µM (inactive)
[54]
  GI50: 49.3 µM (inactive)
[55]
  GI50: 69.2 µM (inactive)
[56]
  GI50: > 83.4 µM (inactive)
[57]
  GI50: > 100 µM (inactive)
[58]
  GI50: > 96.4 µM
[59]
  GI50: > 83.9 µM (inactive)
[60]
  GI50: 63.4 µM (inactive)
[61]
  GI50: 24.8 µM (inactive)
[62]
  GI50: 86.5 µM (inactive)
[63]
  GI50: 75.3 µM (inactive)
[64]
  GI50: > 93.5 µM (inactive)
[65]
  GI50: 77.4 µM (inactive)
[66]
  GI50: 30.9 µM (inactive)
[67]
  GI50: 61 µM (inactive)
